Experimental data as given in patent publication US9040529B2 (Vichem Chemie Kutató Kft., priority 2009, dated 2015).

Molecular target: T1, human CDK9/CyclinT kinase complex (Homo sapiens, UniProt P50750)
T1 construct: purchased Proqinase 0371-0345-1
Experiment: In vitro CDK9/CyclinT assay (IMAP fluorescence polarization kinase assay)
Assay type: biochemical
Conditions: for IC50: 5 nM CDK9/CyclinT, 400 nM TAMRA-Rbtide, 12 μM ATP, 1 hour at room temperature, read-out: CDK9 inhibitory range
Procedure: In Vitro CDK9/CyclinT Assay
The activity of the compounds described in the present invention can be determined by the following kinase assay, which measures the phosphorylation of a fluorescently-labeled peptide by human CDK9/CyclinT kinase complex by fluorescent polarization using a commercially available IMAP Screening Express Assay Kit (Molecular devices).
CDK9 kinase assays were performed in low protein binding 384-well plates (Corning 3676). Test compounds were diluted in 100% DMSO to 5 mM stock concentration, then further dilutions were made in H2O or 100% DMSO to desirable concentrations.
Each reaction consisted of 5 nM enzyme: CDK9/CyclinT (Proqinase cat#0371-0345-1), 400 nM TAMRA-Rbtide (synthetic 15-mer peptide derived from human retinoblastoma tumor suppressor protein labelled with TAMRA dye, Genecust Europe), 12 μM ATP (=Kmapp, Sigma-Aldrich) and kinase buffer: 20 mM MOPS pH 7 (Sigma-Aldrich), 1 mM DTT (Sigma-Aldrich), 10 mM MgCl2 (Sigma-Aldrich), 0.01% Tween 20 (Sigma-Aldrich).
For each reaction, 4 or 6 μl containing TAMRA-Rbtide, ATP and kianse buffer were combined with 2 μl diluted compound in H2O or 0.028 μl compound in 100% DMSO. The kinase reaction was started by the addition of 2 μl diluted enzyme. The reaction was allowed to run for 1 hours at room temperature. The reaction was stopped by adding 15 μl IMAP beads (1:400 beads in progressive (100% buffer A) 1× buffer). After an additional 1 hours, fluorescent polarization (Ex: 550-10 nm, Em: 590-10 nm, Dich: 561 nm) was measured using an Analyst GT (Molecular devices).

T1 sequence (P50750 whole entry): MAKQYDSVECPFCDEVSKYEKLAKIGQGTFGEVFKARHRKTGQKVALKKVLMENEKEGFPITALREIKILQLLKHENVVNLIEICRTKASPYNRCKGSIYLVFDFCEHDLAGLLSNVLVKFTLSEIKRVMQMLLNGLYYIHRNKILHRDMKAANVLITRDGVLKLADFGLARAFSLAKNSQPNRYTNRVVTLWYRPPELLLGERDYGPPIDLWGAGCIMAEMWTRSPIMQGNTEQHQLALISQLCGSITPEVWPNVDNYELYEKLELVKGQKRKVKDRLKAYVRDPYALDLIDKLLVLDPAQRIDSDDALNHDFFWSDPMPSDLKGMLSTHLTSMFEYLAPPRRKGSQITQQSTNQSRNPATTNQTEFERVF
T1 sequence (O60563 whole entry partner): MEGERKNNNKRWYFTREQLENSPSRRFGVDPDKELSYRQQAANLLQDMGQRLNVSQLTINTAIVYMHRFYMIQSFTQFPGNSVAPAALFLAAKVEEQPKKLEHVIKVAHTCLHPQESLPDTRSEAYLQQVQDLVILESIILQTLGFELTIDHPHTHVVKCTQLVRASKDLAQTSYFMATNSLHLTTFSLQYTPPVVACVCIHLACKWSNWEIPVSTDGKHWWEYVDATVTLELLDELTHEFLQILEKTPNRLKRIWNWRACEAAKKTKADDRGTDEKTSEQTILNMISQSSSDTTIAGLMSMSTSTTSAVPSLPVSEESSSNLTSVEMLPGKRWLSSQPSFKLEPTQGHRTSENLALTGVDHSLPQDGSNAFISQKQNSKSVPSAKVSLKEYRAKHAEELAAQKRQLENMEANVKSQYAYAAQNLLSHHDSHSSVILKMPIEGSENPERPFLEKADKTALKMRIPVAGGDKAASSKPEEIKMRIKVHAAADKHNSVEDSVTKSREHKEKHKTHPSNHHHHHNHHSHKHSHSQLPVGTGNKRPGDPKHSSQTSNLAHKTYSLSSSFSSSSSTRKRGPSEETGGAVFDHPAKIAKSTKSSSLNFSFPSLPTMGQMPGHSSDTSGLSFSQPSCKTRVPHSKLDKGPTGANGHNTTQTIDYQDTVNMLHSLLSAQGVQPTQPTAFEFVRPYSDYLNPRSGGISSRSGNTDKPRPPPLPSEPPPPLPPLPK

| CDK9 inhibitory effect | IC50 | SMILES |
| --- | --- | --- |
| nanomolar or low nanomolar range | < 100 nM | COc1cccc(F)c1-c1cc(Nc2cccc(CNS(C)(=O)=O)c2)ncn1 [Example 13, N-{3-[6-(2-Fluoro-6-methoxy-phenyl)-pyrimidin-4-ylamino]-benzyl}-methanesulfonamide] |
|  | < 1000 nM | COc1ccc(COc2ccccc2-c2cc(Nc3ccc(CNS(C)(=O)=O)cc3)ncn2)cc1 [Example 50, N-(4-{6-[2-(4-Methoxy-benzyloxy)-phenyl]-pyrimidin-4-ylamino}-benzyl)-methanesulfonamide] |
| nanomolar or low nanomolar range | < 100 nM | COc1ccc(F)cc1-c1cc(Nc2cccc(Cn3cnc4ccccc43)c2)ncn1 [Example 66, (3-Benzoimidazol-1-ylmethyl-phenyl)-[6-(5-fluoro-2-methoxy-phenyl)-pyrimidin-4-yl]-amine] |
| nanomolar or low nanomolar range | < 100 nM | COc1cc(F)ccc1-c1cc(Nc2cccc(Cn3cnc4ccccc43)c2)ncn1 [Example 65, (3-Benzoimidazol-1-ylmethyl-phenyl)-[6-(4-fluoro-2-methoxy-phenyl)-pyrimidin-4-yl]-amine] |
|  | < 1000 nM | CCc1ccccc1-c1cc(Nc2cccc(CNS(C)(=O)=O)c2)ncn1 [Example 12, N-{3-[6-(2-Ethyl-phenyl)-pyrimidin-4-ylamino]-benzyl}-methanesulfonamide] |
|  | > 10000 nM | Clc1cc(Nc2ccc(Cn3cnc4ccccc43)cc2)ncn1 [Example 86, (4-Benzoimidazol-1-ylmethyl-phenyl)-(6-chloro-pyrimidin-4-yl)-amine] |
|  | < 1000 nM | COc1cc(Cl)ccc1-c1cc(Nc2cccc(CNS(C)(=O)=O)c2)ncn1 [Example 25, N-{3-[6-(4-Chloro-2-methoxy-phenyl)-pyrimidin-4-ylamino]-benzyl}-methanesulfonamide] |
|  | < 10000 nM | CS(=O)(=O)NCc1cccc(Nc2cc(-c3ccccc3OC(F)(F)F)ncn2)c1 [Example 15, N-{3-[6-(2-Trifluoromethoxy-phenyl)-pyrimidin-4-ylamino]-benzyl}-methanesulfonamide] |
|  | < 1000 nM | COc1cccc(-c2cc(Nc3cccc(CNS(C)(=O)=O)c3)ncn2)c1OC [Example 23, N-{3-[6-(2,3-Dimethoxy-phenyl)-pyrimidin-4-ylamino]-benzyl}-methanesulfonamide] |
|  | > 10000 nM | O=C1c2ccccc2C(=O)N1Cc1cccc(Nc2cc(Cl)ncn2)c1 [Example 67, 2-[3-(6-Chloro-pyrimidin-4-ylamino)-benzyl]-isoindole-1,3-dione] |
|  | < 1000 nM | CSc1ccccc1-c1cc(Nc2ccc(CNS(C)(=O)=O)cc2)ncn1 [Example 41, N-{4-[6-(2-Methylsulfanyl-phenyl)-pyrimidin-4-ylamino]-benzyl}-methanesulfonamide] |
|  | < 1000 nM | CS(=O)(=O)NCc1cccc(Nc2cc(-c3cccc(N)c3)ncn2)c1 [Example 22, N-{3-[6-(3-Amino-phenyl)-pyrimidin-4-ylamino]-benzyl}-methanesulfonamide] |
|  | < 1000 nM | COc1ccc(F)cc1-c1cc(Nc2ccc(CNS(C)(=O)=O)cc2)ncn1 [Example 38, N-{4-[6-(5-Fluoro-2-methoxy-phenyl)-pyrimidin-4-ylamino]-benzyl}-methanesulfonamide] |
|  | < 1000 nM | CS(=O)(=O)NCc1ccc(Nc2cc(-c3ccccc3OCc3ccc(F)cc3)ncn2)cc1 [Example 36, N-(4-{6-[2-(4-Fluoro-benzyloxy)-phenyl]-pyrimidin-4-ylamino}-benzyl)-methanesulfonamide] |
|  | > 10000 nM | CS(=O)(=O)NCc1cccc(Nc2cc(Cl)ncn2)c1 [Example 1, N-[3-(6-Chloro-pyrimidin-4-ylamino)-benzyl]-methanesulfonamide] |
|  | > 10000 nM | CS(=O)(=O)NCc1ccc(Nc2cc(Cl)ncn2)cc1 [Example 33, N-[4-(6-Chloro-pyrimidin-4-ylamino)-benzyl]-methanesulfonamide] |
|  | < 10000 nM | COc1ccc(-c2cc(Nc3cccc(CNS(C)(=O)=O)c3)ncn2)cc1 [Example 19, N-{3-[6-(4-Methoxy-phenyl)-pyrimidin-4-ylamino]-benzyl}-methanesulfonamide] |
| nanomolar or low nanomolar range | < 100 nM | COc1cc(F)ccc1-c1cc(Nc2ccc(CNS(C)(=O)=O)cc2)ncn1 [Example 39, N-{4-[6-(4-Fluoro-2-methoxy-phenyl)-pyrimidin-4-ylamino]-benzyl}-methanesulfonamide] |
| nanomolar or low nanomolar range | < 100 nM | CC(C)Oc1cc(F)ccc1-c1cc(Nc2ccc(CNS(C)(=O)=O)cc2)ncn1 [Example 48, N-{4-[6-(4-Fluoro-2-isopropoxy-phenyl)-pyrimidin-4-ylamino]-benzyl}-methanesulfonamide] |
|  | < 1000 nM | COc1ccccc1-c1cc(Nc2ccc(Cn3cnc4ccccc43)cc2)ncn1 [Example 87, (4-Benzoimidazol-1-ylmethyl-phenyl)-[6-(2-methoxy-phenyl)-pyrimidin-4-yl]-amine] |
|  | < 10000 nM | CS(=O)(=O)NCc1cccc(Nc2cc(-c3ccccc3F)ncn2)c1 [Example 16, N-{3-[6-(2-Fluoro-phenyl)-pyrimidin-4-ylamino]-benzyl}-methanesulfonamide] |
|  | < 1000 nM | CC(C)Oc1cc(F)ccc1-c1cc(Nc2cccc(CNS(C)(=O)=O)c2)ncn1 [Example 14, N-{3-[6-(4-Fluoro-2-isopropoxy-phenyl)-pyrimidin-4-ylamino]-benzyl}-methanesulfonamide] |
|  | < 100 nM | CC(C)Oc1cc(F)ccc1-c1cc(Nc2cccc(CNc3nc4ccccc4[nH]3)c2)ncn1 [Example 77, (1H-Benzoimidazol-2-yl)-{3-[6-(4-fluoro-2-isopropoxy-phenyl)-pyrimidin-4-ylamino]-benzyl}-amine] |
|  | < 1000 nM | COc1ccccc1-c1cc(Nc2cccc(CNS(=O)(=O)c3ccc(F)cc3)c2)ncn1 [Example 72, 4-Fluoro-N-{3-[6-(2-methoxy-phenyl)-pyrimidin-4-ylamino]-benzyl}-benzenesulfonamide] |
| nanomolar or low nanomolar range | < 100 nM | COc1ccccc1-c1cc(Nc2cccc(CN3C(=O)c4ccccc4C3=O)c2)ncn1 [Example 68, 2-{3-[6-(2-Methoxy-phenyl)-pyrimidin-4-ylamino]-benzyl}-isoindole-1,3-dione] |
| nanomolar or low nanomolar range | < 100 nM | CS(=O)(=O)NCc1ccc(Nc2cc(-c3ccccc3OCc3ccccc3)ncn2)cc1 [Example 35, N-{4-[6-(2-Benzyloxy-phenyl)-pyrimidin-4-ylamino]-benzyl}-methanesulfonamide] |

| SMILES | CDK9 inhibitory effect | IC50 |
| --- | --- | --- |
| CC(C)COc1ccccc1-c1cc(Nc2ccc(CNS(C)(=O)=O)cc2)ncn1 [Example 51, N-{4-[6-(2-Isobutoxy-phenyl)-pyrimidin-4-ylamino]-benzyl}-methanesulfonamide] |  | < 1000 nM |
| C=C(c1ccccc1)c1cc(Nc2cccc(CNS(C)(=O)=O)c2)ncn1 [Example 3] |  | < 10000 nM |
